{"source": "patent US8173697B2", "about": "“Alkoxyalkyl-substituted cyclic keto-enols” (Bayer CropScience AG, priority 2006, dated 2012)", "format_in_all_cases": "in vivo", "key": {"Aphis gossypii": {"test_system": "Aphis gossypii", "test": "Aphis gossypii test (Example 12)", "details": "for Destruction (%) after 6 d: no additive", "procedure": "For application with ammonium salts or phosphonium salts and penetration promoters (rapeseed oil methyl ester 500 EW) these are in each case added in a concentration of 1000 ppm a.i. to the spray liquor.\n(§1) After the desired time the destruction in % is determined."}, "Myzus persicae": {"test_system": "Myzus persicae", "test": "Myzus persicae test, activity boost through ammonium/phosphonium salts and penetration promoters (Example 11)", "procedure": "For application with ammonium salts or phosphonium salts and penetration promoters (rapeseed oil methyl ester 500 EW) these are in each case added in a concentration of 1000 ppm to the spray liquor.\nas §1"}, "Maize - Arsenal": {"test_system": "Maize - Arsenal", "test": "Greenhouse container trials with maize, pre-emergence, with and without safener", "details": "28 days after application", "from_the_text": "Seeds of monocotyledonous and dicotyledonous weed plants and crop plants are placed in sandy loam soil in wood fibre pots or in plastic pots and are covered with earth. The test compounds, formulated as wettable powders (WP) or liquids (EC), are sprayed onto the soil surface in various dosages, with a water application rate of 300 l/ha (converted). The pots are then placed in a greenhouse under good growth conditions, and also, during the vegetation period, are placed outdoors, outside of the greenhouse, so that the plants are able to germinate and develop. 3 to 4 weeks after the trial plants have been treated, the effect of the products is rated visually in comparison to untreated controls (herbicidal effect in percent: 100% effect=plants have died, 0% effect=like control plants).\n(§2) If the testing is also to look at whether safeners can improve the tolerance of the crop plants for test substances, the following options are used for the application of the safener: • seeds of the crop plants are dressed with the safener substance prior to sowing (the amount of safener is stated as a percentage, based on the seed weight) • pots containing the crop plants are sprayed with the safener, with a defined application rate per hectare, prior to application of the test substances • the safener is applied together with the test substance in the form of a tank mix (the amount of safener is reported in g/ha or as a proportion relative to the herbicide).\n(§3) By comparing the effect of test substances on crop plants which have been treated with safener and without safener it is possible to assess the effect of the safener substance."}, "Spring barley": {"test_system": "Spring barley", "test": "Greenhouse container trials with cereals, post-emergence, with and without safener", "procedure": "(§4) Seeds of monocotyledonous and dicotyledonous weed plants and crop plants are placed in sandy loam soil in wood fibre pots or in plastic pots and are covered with earth and cultivated in a greenhouse and also, during the vegetation period, outdoors, outside of the greenhouse, under good growth conditions. 2 to 3 weeks after sowing, the trial plants are treated at the one- to three-leaf stage. The test compounds, formulated as wettable powders (WP) or liquids (EC), are sprayed onto the plants and the soil surface in various dosages, with a water application rate of 300 l/ha (converted) and with addition of wetting agent (0.2% to 0.3%). […]\nas §2, with “weight) • crop plants” for “weight) • pots containing the crop plants”, “test substances (typically 1 day before the test substances are applied) • the” for “test substances • the”\nas §3"}, "Spring wheat": {"test_system": "Spring wheat", "test": "Greenhouse container trials with cereals, post-emergence, with and without safener", "details": "10 days after application", "procedure": "as §4\nas §2, with “weight) • crop plants” for “weight) • pots containing the crop plants”, “test substances (typically 1 day before the test substances are applied) • the” for “test substances • the”\nas §3"}, "[1]": {"details": "20 ppm, no additive, bell pepper plants"}}}
{"smiles": "COCC1(C)NC(=O)C(c2cc(-c3ccc(Cl)cc3)ccc2C)=C1O", "note": "(stereo not shown) [I-a-1]", "values": [{"measurement": "Destruction (%) after 6 d +AS 1000 ppm", "setting": "Aphis gossypii; 20 ppm active compound", "result": 20, "unit": "%"}, {"measurement": "Destruction (%) after 6 d +AS +RME 1000 ppm each", "setting": "Aphis gossypii; 20 ppm active compound", "result": 85, "unit": "%"}, {"measurement": "Destruction (%) after 6 d +RME 1000 pm", "setting": "Aphis gossypii; 20 ppm active compound", "result": 5, "unit": "%"}, {"measurement": "Destruction (%) after 6 d", "setting": "Aphis gossypii; 20 ppm active compound", "result": 5, "unit": "%"}, {"measurement": "Destruction (%) after 6 d +AS 1000 ppm", "setting": "Aphis gossypii; 100 ppm active compound", "result": 90, "unit": "%"}, {"measurement": "Destruction (%) after 6 d +AS +RME 1000 ppm each", "setting": "Aphis gossypii; 100 ppm active compound", "result": 90, "unit": "%"}, {"measurement": "Destruction (%) after 6 d +RME 1000 pm", "setting": "Aphis gossypii; 100 ppm active compound", "result": 90, "unit": "%"}, {"measurement": "Destruction (%) after 6 d", "setting": "Aphis gossypii; 100 ppm active compound", "result": 60, "unit": "%"}, {"measurement": "Destruction (%) after 6 d", "setting": "Myzus persicae; 4 ppm, +AS 1000 ppm", "result": 0, "unit": "%"}, {"measurement": "Destruction (%) after 6 d", "setting": "Myzus persicae; 4 ppm, +AS +RME 1000 ppm each", "result": 75, "unit": "%"}, {"measurement": "Destruction (%) after 6 d", "setting": "Myzus persicae; 4 ppm, +RME 1000 pm", "result": 35, "unit": "%"}, {"measurement": "Destruction (%) after 6 d", "setting": "Myzus persicae; 4 ppm, no additive, bell pepper plants", "result": 0, "unit": "%"}, {"measurement": "Destruction (%) after 6 d", "setting": "Myzus persicae; 20 ppm, +AS 1000 ppm", "result": 65, "unit": "%"}, {"measurement": "Destruction (%) after 6 d", "setting": "Myzus persicae; 20 ppm, +AS +RME 1000 ppm each", "result": 99, "unit": "%"}, {"measurement": "Destruction (%) after 6 d", "setting": "Myzus persicae; 20 ppm, +RME 1000 pm", "result": 98, "unit": "%"}, {"measurement": "Destruction (%) after 6 d", "setting": "Myzus persicae; [1]", "result": 0, "unit": "%"}]}
{"smiles": "COCC1(C)NC(=O)C(c2c(C)ccc(-c3ccc(Cl)cc3)c2C)=C1O", "note": "(stereo not shown) [I-a-7]", "values": [{"measurement": "Destruction (%) after 6 d +AS 1000 ppm", "setting": "Aphis gossypii; 20 ppm active compound", "result": 10, "unit": "%"}, {"measurement": "Destruction (%) after 6 d +AS +RME 1000 ppm each", "setting": "Aphis gossypii; 20 ppm active compound", "result": 90, "unit": "%"}, {"measurement": "Destruction (%) after 6 d +RME 1000 pm", "setting": "Aphis gossypii; 20 ppm active compound", "result": 70, "unit": "%"}, {"measurement": "Destruction (%) after 6 d", "setting": "Aphis gossypii; 20 ppm active compound", "result": 5, "unit": "%"}]}
{"smiles": "COCC1(C)NC(=O)C(c2cc(-c3ccc(F)cc3)ccc2C)=C1O", "note": "(stereo not shown) [I-a-12]", "values": [{"measurement": "Destruction (%) after 6 d", "setting": "Myzus persicae; 20 ppm, +AS 1000 ppm", "result": 0, "unit": "%"}, {"measurement": "Destruction (%) after 6 d", "setting": "Myzus persicae; 20 ppm, +AS +RME 1000 ppm each", "result": 99, "unit": "%"}, {"measurement": "Destruction (%) after 6 d", "setting": "Myzus persicae; 20 ppm, +RME 1000 pm", "result": 45, "unit": "%"}, {"measurement": "Destruction (%) after 6 d", "setting": "Myzus persicae; [1]", "result": 10, "unit": "%"}, {"measurement": "Destruction (%) after 6 d", "setting": "Myzus persicae; 100 ppm, +AS 1000 ppm", "result": 98, "unit": "%"}, {"measurement": "Destruction (%) after 6 d", "setting": "Myzus persicae; 100 ppm, +AS +RME 1000 ppm each", "result": 99, "unit": "%"}, {"measurement": "Destruction (%) after 6 d", "setting": "Myzus persicae; 100 ppm, +RME 1000 pm", "result": 99, "unit": "%"}, {"measurement": "Destruction (%) after 6 d", "setting": "Myzus persicae; 100 ppm, no additive, bell pepper plants", "result": 85, "unit": "%"}]}
{"smiles": "CCc1cc(-c2ccc(Cl)cc2)cc(CC)c1C1=C(OC(=O)C(C)C)C(C)(COC)NC1=O", "note": "(stereo not shown) [I-b-2]", "values": [{"measurement": "Maize - Arsenal observed (%)", "setting": "Maize - Arsenal; 25 g a.i./ha", "result": 40, "unit": "%"}, {"measurement": "Maize - Arsenal observed (%)", "setting": "Maize - Arsenal; 50 g a.i./ha", "result": 50, "unit": "%"}]}
{"smiles": "CCc1cc(-c2ccc(C)cc2)cc(C)c1C1=C(OC(=O)C(C)C)C(C)(COC)NC1=O", "note": "(stereo not shown) [I-b-5]", "values": [{"measurement": "Spring barley observed (%)", "setting": "Spring barley; 25 g a.i./ha, 28 days after application", "result": 10, "unit": "%"}, {"measurement": "Spring barley observed (%)", "setting": "Spring barley; 50 g a.i./ha, 10 days after application", "result": 50, "unit": "%"}, {"measurement": "Spring barley observed (%)", "setting": "Spring barley; 100 g a.i./ha, 10 days after application", "result": 65, "unit": "%"}, {"measurement": "Spring barley observed (%)", "setting": "Spring barley; 100 g a.i./ha, 28 days after application", "result": 30, "unit": "%"}, {"measurement": "Spring wheat observed (%)", "setting": "Spring wheat; 50 g a.i./ha", "result": 10, "unit": "%"}, {"measurement": "Spring wheat observed (%)", "setting": "Spring wheat; 100 g a.i./ha", "result": 15, "unit": "%"}]}
{"smiles": "CCOC(=O)OC1=C(c2c(C)cc(-c3ccc(Cl)cc3)cc2CC)C(=O)NC1(C)COC", "note": "(stereo not shown) [I-c-1]", "values": [{"measurement": "Maize - Arsenal observed (%)", "setting": "Maize - Arsenal; 50 g a.i./ha", "result": 55, "unit": "%"}]}
